Data as given in US12213955B2 (priority 2017, dated 2025).
Read-outs that look alike come from different tables or passages of the source.

Assays:
MERS-CoV [1] = type: cell-based, MERS-CoV (HCoV-EMC/2012)
MERS-CoV [2] = type: cell-based, MERS-CoV (HCoV-EMC/2012); remark: listed apart in the source
[3] = system: MERS-CoV nucleoprotein (NP); type: cell-based
MERS-CoV [4] = type: cell-based
MERS-CoV [5] = type: cell-based; remark: listed apart in the source
MERS-CoV [6] = type: cell-based; remark: listed apart in the source
TNF-α, IL-1β, IL-8 = type: cell-based, human
MERS-CoV [7] = assay: microbe, parasite or virus in culture; type: cell-based
MERS-CoV [8] = type: cell-based; remark: listed apart in the source
MERS-CoV [9] = type: cell-based; remark: listed apart in the source
MERS-CoV [10] = conditions: mouse, in vivo
MERS-CoV [11] = type: cell-based, MERS-CoV (HCoV-EMC/2012); remark: listed apart in the source
SARS-CoV = type: cell-based, SARS-CoV (GZ50)
Zika virus (ZIKV) = type: cell-based, ZIKV (Puerto Rico strain PRVABC59)
enterovirus-A71 (EV-A71) = type: cell-based, Enterovirus A71 (SZ/HK08-5)
[12] = system: human adenovirus type 5 (AdV5); type: cell-based
Influenza A(H7N9) virus = conditions: mouse, in vivo
MERS-CoV [13] = type: cell-based; remark: listed apart in the source
[14] = system: TK, CMV and SV40 promoters; type: cell-based
MERS-CoV [15] = type: cell-based; remark: listed apart in the source
Calu-3 cells = type: cell-based, human
Huh7 cells = type: cell-based, human
[16] = system: fatty acid and cholesterol synthesis genes; type: cell-based, human
MERS-CoV [17] = type: cell-based; remark: listed apart in the source
n-SREBP1 = target: T1, n-SREBP1 (Homo sapiens, UniProt P36956); assay: SREBP1 DNA (SRE) binding activity assay; type: biochemical
T1 construct: requires cleavage of pre-SREBPs to release the nuclear form (n-SREBPs); endogenous in cells; host or cells: Huh7 nuclear extract
T1 sequence (P36956 1-490 limits assumed): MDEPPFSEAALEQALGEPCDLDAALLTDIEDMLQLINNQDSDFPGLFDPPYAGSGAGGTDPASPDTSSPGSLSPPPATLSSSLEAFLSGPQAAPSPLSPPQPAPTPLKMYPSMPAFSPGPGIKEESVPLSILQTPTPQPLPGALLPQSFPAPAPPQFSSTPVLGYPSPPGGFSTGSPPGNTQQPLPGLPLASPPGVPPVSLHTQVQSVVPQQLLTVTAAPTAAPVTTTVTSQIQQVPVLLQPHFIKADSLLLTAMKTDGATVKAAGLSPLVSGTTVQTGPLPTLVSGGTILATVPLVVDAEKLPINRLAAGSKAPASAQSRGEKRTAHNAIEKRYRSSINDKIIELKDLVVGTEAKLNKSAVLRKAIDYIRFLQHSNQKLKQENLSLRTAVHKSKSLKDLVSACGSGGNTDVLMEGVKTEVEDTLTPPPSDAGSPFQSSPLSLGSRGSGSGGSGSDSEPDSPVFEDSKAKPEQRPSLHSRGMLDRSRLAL

n-SREBP2 = target: T2, n-SREBP2 (Homo sapiens, UniProt Q12772); assay: SREBP2 DNA (SRE) binding activity assay; type: biochemical; conditions: dose-dependent
T2 construct: requires cleavage of pre-SREBPs to release the nuclear form (n-SREBPs); endogenous in cells; Huh7 in the sister assay
T2 sequence (Q12772 1-484 limits assumed): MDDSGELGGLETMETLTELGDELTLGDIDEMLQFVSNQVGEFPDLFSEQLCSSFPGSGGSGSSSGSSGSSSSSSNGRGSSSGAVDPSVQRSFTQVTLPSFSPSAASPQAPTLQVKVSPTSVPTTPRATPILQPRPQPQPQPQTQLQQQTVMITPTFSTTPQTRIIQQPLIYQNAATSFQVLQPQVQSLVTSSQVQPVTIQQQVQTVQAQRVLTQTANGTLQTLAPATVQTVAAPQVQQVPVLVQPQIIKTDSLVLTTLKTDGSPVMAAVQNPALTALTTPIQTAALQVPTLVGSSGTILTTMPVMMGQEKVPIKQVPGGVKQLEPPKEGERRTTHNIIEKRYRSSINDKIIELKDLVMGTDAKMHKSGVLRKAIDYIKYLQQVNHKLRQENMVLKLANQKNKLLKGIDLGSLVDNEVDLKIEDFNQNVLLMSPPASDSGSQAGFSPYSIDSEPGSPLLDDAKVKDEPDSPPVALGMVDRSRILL

HMGCS promoter = type: cell-based, hamster
FAS-promoter = type: cell-based
MERS-CoV [18] = type: cell-based; remark: listed apart in the source
[19] = system: double-membrane vesicles (DMVs); type: cell-based, African green monkey
[20] = mouse models, reported [43]; cited from earlier work
MERS-CoV [21] = type: cell-based; remark: listed apart in the source
MERS-CoV [22] = type: cell-based; remark: listed apart in the source
[23] = Middle East respiratory syndrome-related coronavirus, read-out: IC50 anti-MERS-CoV activity

CC1(C)CCC(C)(C)c2cc(C(=O)Nc3ccc(C(=O)O)cc3)ccc21 [AM580]
cell protection against MERS-CoV infection (MERS-CoV [1]): protected cells against infection
reduction of viral titer in the cell supernatant (MERS-CoV [2]): > 3 logs
expression of MERS-CoV nucleoprotein (NP) [3]: dramatically decreased
MERS-CoV NP-positive cells (MERS-CoV [4]): 5.38%
immunofluorescence staining for MERS-CoV NP (MERS-CoV [5]): near-complete suppression of virus infection
MERS-CoV replication in multiple cell types (MERS-CoV [6]): reduce MERS-CoV replication in multiple cell types
virus-induced pro-inflammatory cytokine activation (TNF-α, IL-1β, IL-8): suppress virus-induced pro-inflammatory cytokine activation
IC50 (MERS-CoV [7]; read-out: IC50 against MERS-CoV infection): < 1 µM
PFU in intestinoid culture supernatant (MERS-CoV [8]): no PFU were detectable
expression of viral NP in intestinoids (MERS-CoV [8]): markedly decreased expression of viral NP
reduction of viral titer relative to DMSO-treated control intestinoids (MERS-CoV [8]): approximately 6 log10 PFU/ml
MERS-CoV NP expression in epithelial cells of terminal bronchioles (MERS-CoV [9]): marked reduction in MERS-CoV NP expression
alveolar damage and interstitial inflammatory infiltration in lung tissues (MERS-CoV [10]): significantly improved
mean body weight vs DMSO-treated control mice (MERS-CoV [10]): generally higher
reduction of viral RNA content of brain tissues vs DMSO-treated control (MERS-CoV [10]): 4 log10
viral RNA content in lung tissues vs DMSO-treated control (MERS-CoV [10]): significantly (p<0.01) lower
survival (MERS-CoV [10]; ip, 12.5 mg/kg/day): 100%
selectivity index (CC50/IC50) (MERS-CoV [11]): 507
concentrations inhibiting replication of SARS-CoV (SARS-CoV): nanomolar to low micromolar
selectivity index (CC50/IC50) (SARS-CoV): 114
concentrations inhibiting replication of ZIKV (Zika virus (ZIKV)): nanomolar to low micromolar
concentrations inhibiting replication of EV-A71 (enterovirus-A71 (EV-A71)): nanomolar to low micromolar
concentrations inhibiting replication of AdV5 [12]: nanomolar to low micromolar
lung histopathology (Influenza A(H7N9) virus): ameliorated virus-associated pulmonary inflammatory infiltration and bronchopneumonia
mean body weight (Influenza A(H7N9) virus): gradually rebounded starting on day 8 post-challenge
mean viral RNA load in lung tissues vs DMSO-treated control (Influenza A(H7N9) virus): significantly (p<0.01) lower
survival rate (Influenza A(H7N9) virus): 60%
antiviral potency of AM580 with RAR-α antagonist ER50891 (MERS-CoV [13]): did not diminish the antiviral potency
transactivation of TK, CMV and SV40 promoters [14]: did not inhibit transactivation of promoters
MERS-CoV attachment or internalization (MERS-CoV [15]): did not interfere with MERS-CoV attachment or internalization
virus-induced perturbation of lipid homeostasis (lipidome) (Calu-3 cells): antagonized this virus-induced perturbation of lipid homeostasis
accumulation of lipid droplets and cholesterol (Huh7 cells): significantly reduced their production
cholesterol synthetic pathway genes with reduced mRNA expression (10/12) [16]: 83.3%
fatty acid metabolism genes with significant decreases in mRNA expression (13/17) [16]: 76.5%
loss of antiviral potency with increased n-SREBPs (MERS-CoV [17]): about 1 log10 unit
binding of n-SREBP1 with its SRE (n-SREBP1; Huh7 nuclear extraction, 20 μM): inhibited binding
binding partner: n-SREBP1 or SRE (pre-incubation) (n-SREBP1; pre-incubation 2 h): bind with n-SREBP1 rather than SRE
binding of n-SREBP2 with its SRE (n-SREBP2): inhibited binding
HMGCS-promoter-Luc reporter gene activity (HMGCS promoter): concentration-dependent inhibition
FAS-promoter-Luc reporter gene activity (FAS-promoter): concentration-dependent inhibition
anti-MERS-CoV activity (viral yield) (MERS-CoV [18]): showed anti-MERS-CoV activity
virus yield on addition of sodium palmitate (MERS-CoV [18]): increased the virus yield
DMV formation [19]: no DMVs were noted
palmitoylated-HA level (hemagglutinin (HA)): Reduced levels of palmitoylated-HA
total HA protein (hemagglutinin (HA)): no impact on protein synthesis
CC50 (different cell lines): 100 to 200 µM
teratogenicity [20]: teratogenic effects

CCCCCCCCCCCCCCC(Br)C(=O)O (stereo not shown) [2-BP]
palmitoylated-HA level (hemagglutinin (HA)): Reduced levels of palmitoylated-HA
total HA protein (hemagglutinin (HA)): no impact on protein synthesis
MERS-CoV replication (MERS-CoV [21]): inhibited MERS-CoV replication in a dose-dependent manner

C=C1CC[C@H](O)C/C1=C/C=C1\CCC[C@]2(C)[C@@H]([C@H](C)CCCC(C)(C)O)CC[C@@H]12 [25-Hydroxyvitamin D3]
cell protection against MERS-CoV infection (MERS-CoV [1]): protected Huh7 cells against MERS-CoV infection

C=C(C)[C@@H]1CC[C@]2(CO)CC[C@]3(C)[C@H](CC[C@@H]4[C@@]5(C)CC[C@H](O)C(C)(C)[C@@H]5CC[C@]43C)[C@@H]12 [betulin]
reduction in viral titer (MERS-CoV [22]): about 1 log PFU/ml

C=C(c1ccc(C(=O)O)cc1)c1cc2c(cc1C)C(C)(C)CCC2(C)C [bexarotene]
IC50 (MERS-CoV [7]; [23]): 0.875 ± 0.015 µM

PF429242
reduction in viral titer (MERS-CoV [22]): about 1 log PFU/ml

CC1(C)CCC(C)(C)c2cc(NC(=O)c3ccc(C(=O)O)cc3)ccc21 [Tamibarotene]
IC50 (MERS-CoV [7]; [23]): 0.32 ± 0.026 µM
